# Measurements from patent US11591596B2, “Compounds and compositions including phosphorothioated oligodeoxynucleotide, and methods of use thereof” (City of Hope, priority 2015, dated 2023).
# Columns and labels:
# [1] = test system: normal and CML CD34+CD38− primitive progenitors; assay: Cell cycling of CD34+CD38- cells by EDU/DAPi staining; type: cell-based, human; details: 500 nM, 72 hours
# Description: FIGS. 9A-9D are a series of cell sorting plots showing increased cell cycle in CD34+CD38− cells after knockdown of […]. Normal (NL; FIGS. 9A-9B) and CML human CD34+CD38− cells (FIGS. 9C-9D) were sorted and then cultured with 500 nm CpG-miR126 inh-Cy3 or CpG-SCR control for 72 hours, and then cell cycling was analyzed by EDU/DAPi staining.
# CML CD34+, CD34+CD38+ committed and CD34+CD38− primitive progenitors were cultured with CpG-scramble RNA (500 nM), CpG-anti-miR126 inhibitor (500 nM), CpG-scramble RNA (500 nM)+Nilotinib (NIL, 5 uM), and CpG-anti-miR126 inhibitor (500 nM)+NIL (5 uM) for 72 hours and then cell cycling and apoptosis were analyzed by EDU/DAPi and Annexin V/DAPi staining.
# [2] = test system: miR-126; assay: miR-126 expression in K562 and MV4-11 cells with miR-126 inhibitors or mimics; type: cell-based; details: 500 nM, 24 hours
# Description: FIGS. 26A-26E. Effective knockdown of miR-126 with miR-126 inhibitors conjugated with CpG, GpC and PS, and effective over-expression with miR-126 mimics in K562 and MV4-11 cells. K562 and MV4-11 cells were treated with miR-126 inhibitors conjugated with CpG, GpC, PS (FIGS. 26A-26B) or miR-126 mimics (615, 616 and 617) (FIGS. 26C-26D) (500 nM) for 24 hours, and miR-126 expression was measured in these cells. […] FIG. 26E) Tabulation of sequence set forth herein.
# Effective knockdown of miR-126 with miR-126 inhibitors conjugated with CpG, GpC and PS, and effective over-expression with miR-126 mimics in K562 and MV4-11 cells. K562 and MV4-11 cells were treated with miR-126 inhibitors conjugated with CpG, GpC, PS (FIGS. 26A-26B) or miR-126 mimics (615, 616 and 617) (FIGS. 26C-26D) (500 nM) for 24 hours, and miR-126 expression was measured in these cells.
# [3] = test system: human AML CD34+ cells; assay: Cell cycling, apoptosis and cell growth of AML CD34+ cells with Ara-c and Doxo; type: cell-based; details: 500 nM combined with Ara-c and Doxo
# Description: AML CD34+ cells were cultured with CpG-anti-miR-126 or CpG-SCR (500 nM) for 48 hours, then furthered cultured with miR126 inh+Ara-c+Doxo or SCR+A+D for 72 hours, then cell cycling, apoptosis (FIG. 12B) and cell growth (FIG. 12C) were analyzed.
# [4] = test system: Mouse CML leukemia stem cells (LSC, Lin-Sca-1+c-kit+Fit3-CD150+CD48-); assay: Apoptosis and cell growth of mouse CML leukemia stem cells; type: cell-based; details: combined with NIL, compared with CpG-SCR+NIL
# Description: Mouse CML leukemia stem cells (LSC, Lin-Sca-1+c-kit+Fit3-CD150+CD48-) were sorted and treated with CpG-anti-miR-126 inhibitor or CpG-SCR (500 nM) for 48 hours, then furthered treated with miR126 inhibitor+NIL or SCR+NIL for 72 hours, then apoptosis and cell growth were measured.
# [5] = test system: miR126; assay: miRNA 126 expression in AML and CML cell lines by Q-RT-PCR; type: cell-based, human; details: 500 nM, 24 hours
# Description: FIGS. 4A-4G are bar graphs showing miRNA 126 expression in AML and CML cell lines. Cells were cultured with miR126-inhibitor-Cy3 (Cy3-200 nM0, human CD45 (Ab-200 nM) or Transferrin (TF-200 nM)-conjugated NP containing antagomiR-126-Cy3, CpG-miR126 inhibitor-Cy3 (CpG-Cy3-200 nM and 500 nM) for 24 hours, then miR126 and RNU44 (control) expression in these cells was analyzed by q-RT PCR. The miR126 expression levels were normalized to RNU44 and calculated by using the comparative 2^−ΔΔct method. FIG. 4A is a bar graph showing miRNA 126 expression in the K562 CML cell line. FIG. 4B is a bar graph showing miRNA 126 expression in the KG1A AML cell line. FIG. 4C is a bar graph showing miRNA 126 expression in the MV4-11 AML cell line. FIG. 4D is a bar graph showing the miRNA 126 expression in the Molm13 AML cell line. FIG. 4E is a bar graph showing the miRNA 126 expression in the NB4 AML cell line. […]
# miRNA 126 expression in AML and CML lines was evaluated. CML (K562) (FIG. 4A) and AML cell lines (KG1A, MV4-11, Molm13, NB4, OCI and HL60) (FIGS. 4B-4G) were cultured with anti-miR126 inhibitor-Cy3 (Cy3 ctrl, 200 nM), human CD45 (Ab-NP, 200 nM) or Transferrin (TF-NP, 200 nM)-conjugated NP containing anti-miR-126-Cy3, or CpG-anti-miR126 inhibitor-Cy3 (CpG-200 nM and 500 nM) for 24 hours, then miR126 and RNU44 (control) expression in these cells were analyzed by Q-RT-PCR.
# [6] = compared with Ara-c and Doxo alone
substance,measurement,setting,value
5′ G*G*T GCA TCG ATG CAGG*G*G* G*G (SEQ ID NO: 1) xxxxx mCmGmC mAmUmU mAmUmU mAmCmU mCmAmC mGmGmU mAmCmG mA (SEQ ID NO: 17) 3′ [CpG-anti-miR126],cell cycling,[1],Increased cell cycling
same,miR-126 expression (knockdown by inhibitors),[2],very effective in reducing miR-126
same,cell growth,[3],reduction of cell growth
same,apoptosis,[3]; [6],significantly increased
same,cell cycling,[3]; [6],significantly increased
same,apoptosis of LSC,[4],significantly increased apoptosis
same,cell growth of LSC,[4],significant reduction of cell growth
same,downregulation of miRNA126,[5]; all tested human AML and CML cell lines,most effective downregulation
same,reduction of target miRNA expression,"[5]; HL60, K562, MV4-11, MOLM13 and OCI cells",more than 50%
